# Test results as given in patent publication US20250101028A1, “HETEROCYCLIC COMPOUNDS, COMPOSITIONS THEREOF, AND METHODS OF TREATMENT THEREWITH” (BeiGene, Ltd., priority 2022, published 2025).
# Target: T1, GST-tagged GDP-loaded KRAS G12V (amino acids 1-169) (Homo sapiens, UniProt P01116, G12V)
# T1 construct: GST-tagged GDP-loaded KRAS G12V (amino acids 1-169); made in house; host or cells: E. coli
# Test: KRAS G12V probe displacement assay (TR-FRET)
# Type: binding
# Settings: displacement of biotinylated probe 2 from GDP-loaded KRAS G12V
# Procedure, shortened: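 GST-tagged GDP-loaded KRAS 1-169 (WT 3 nM; G12V 2 nM final) preincubated 1 h at 24 °C with serially diluted compound in HEPES pH 7.5 buffer, then biotinylated probe added (probe 1 60 nM for WT; probe 2 2.5 nM for G12V), 1 h. Anti-GST-Tb/streptavidin-XL665 TR-FRET 665/620 ratio; IC50 by four-parameter fit.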
# T1 sequence (P01116 1-169 isoform P01116-2 G12V): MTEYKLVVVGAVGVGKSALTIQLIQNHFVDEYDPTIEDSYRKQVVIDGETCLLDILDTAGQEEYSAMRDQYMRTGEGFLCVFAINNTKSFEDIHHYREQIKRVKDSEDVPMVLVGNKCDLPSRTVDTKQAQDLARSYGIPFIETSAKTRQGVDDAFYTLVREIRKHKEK
row,Structure (SMILES),IC50 [nM]
1,"N#C[C@@H]1CCCN(c2nc(OC[C@@]34CCCN3C[C@H](F)C4)nc3c(F)c(-c4ccc(F)c5sc(N)nc45)c(C(F)(F)F)cc23)C1 [Example 76, (3R)-1-(7-(2-amino-7-fluorobenzo[d]thiazol-4-yl)-8-fluoro-2-(((2R,7aS)-2-fluorotetrahydro-1H-pyrrolizin-7a(5H)-yl)methoxy)-6-(trifluoromethyl)quinazolin-4-yl)piperidine-3-carbonitrile]",21
2,"N#C[C@H]1CCCN(c2nc(OC[C@@]34CCCN3C[C@H](F)C4)nc3c(F)c(-c4ccc(F)c5sc(N)nc45)c(C(F)(F)F)cc23)C1 [Example 77, (3S)-1-(7-(2-amino-7-fluorobenzo[d]thiazol-4-yl)-8-fluoro-2-(((2R,7aS)-2-fluorotetrahydro-1H-pyrrolizin-7a(5H)-yl)methoxy)-6-(trifluoromethyl)quinazolin-4-yl)piperidine-3-carbonitrile]",17
3,"Nc1nc2c(-c3c(C(F)(F)F)cc4c(N5CCC(O)CC5)nc(OC[C@@]56CCCN5C[C@H](F)C6)nc4c3F)ccc(F)c2s1 [Example 78, 1-(7-(2-amino-7-fluorobenzo[d]thiazol-4-yl)-8-fluoro-2-(((2R,7aS)-2-fluorotetrahydro-1H-pyrrolizin-7a(5H)-yl)methoxy)-6-(trifluoromethyl)quinazolin-4-yl)piperidin-4-ol]",3.3
4,"C[C@]1(O)CCCN(c2nc(OC[C@@]34CCCN3C[C@H](F)C4)nc3c(F)c(-c4ccc(F)c5sc(N)nc45)c(C(F)(F)F)cc23)C1 [Example 79, (3S)-1-(7-(2-amino-7-fluorobenzo[d]thiazol-4-yl)-8-fluoro-2-(((2R,7aS)-2-fluorotetrahydro-1H-pyrrolizin-7a(5H)-yl)methoxy)-6-(trifluoromethyl)quinazolin-4-yl)-3-methylpiperidin-3-ol]",28
5,"C[C@@]1(O)CCCN(c2nc(OC[C@@]34CCCN3C[C@H](F)C4)nc3c(F)c(-c4ccc(F)c5sc(N)nc45)c(C(F)(F)F)cc23)C1 [Example 80, (3R)-1-(7-(2-amino-7-fluorobenzo[d]thiazol-4-yl)-8-fluoro-2-(((2R,7aS)-2-fluorotetrahydro-1H-pyrrolizin-7a(5H)-yl)methoxy)-6-(trifluoromethyl)quinazolin-4-yl)-3-methylpiperidin-3-ol]",17
6,"Nc1nc2c(-c3c(C(F)(F)F)cc4c(N5CCCCCC5)nc(OC[C@@]56CCCN5C[C@H](F)C6)nc4c3F)ccc(F)c2s1 [Example 81, 4-(4-(azepan-1-yl)-8-fluoro-2-(((2R,7aS)-2-fluorotetrahydro-1H-pyrrolizin-7a(5H)-yl)methoxy)-6-(trifluoromethyl)quinazolin-7-yl)-7-fluorobenzo[d]thiazol-2-amine]",4.9
7,"N#CC1CCCCN(c2nc(OC[C@@]34CCCN3C[C@H](F)C4)nc3c(F)c(-c4ccc(F)c5sc(N)nc45)c(C(F)(F)F)cc23)C1 (stereo partly drawn) [Example 83, 1-(7-(2-amino-7-fluorobenzo[d]thiazol-4-yl)-8-fluoro-2-(((2R,7aS)-2-fluorotetrahydro-1H-pyrrolizin-7a(5H)-yl)methoxy)-6-(trifluoromethyl)quinazolin-4-yl)azepane-3-carbonitrile]",6.4
8,"Nc1nc2c(-c3c(C(F)(F)F)cc4c(N5CCCC(O)CC5)nc(OC[C@@]56CCCN5C[C@H](F)C6)nc4c3F)ccc(F)c2s1 (stereo partly drawn) [Example 84, 1-(7-(2-amino-7-fluorobenzo[d]thiazol-4-yl)-8-fluoro-2-(((2R,7aS)-2-fluorotetrahydro-1H-pyrrolizin-7a(5H)-yl)methoxy)-6-(trifluoromethyl)quinazolin-4-yl)azepan-4-ol]",0.98
9,"Nc1nc2c(-c3c(C(F)(F)F)cc4c(N5CCCC(CO)CC5)nc(OC[C@@]56CCCN5C[C@H](F)C6)nc4c3F)ccc(F)c2s1 (stereo partly drawn) [Example 85, (1-(7-(2-amino-7-fluorobenzo[d]thiazol-4-yl)-8-fluoro-2-(((2R,7aS)-2-fluorotetrahydro-1H-pyrrolizin-7a(5H)-yl)methoxy)-6-(trifluoromethyl)quinazolin-4-yl)azepan-4-yl)methanol]",2.3
10,"CCN1CC2(CCN(c3nc(OC[C@@]45CCCN4C[C@H](F)C5)nc4c(F)c(-c5ccc(F)c6sc(N)nc56)c(C(F)(F)F)cc34)CC2)OC1=O [Example 88, 8-(7-(2-amino-7-fluorobenzo[d]thiazol-4-yl)-8-fluoro-2-(((2R,7aS)-2-fluorotetrahydro-1H-pyrrolizin-7a(5H)-yl)methoxy)-6-(trifluoromethyl)quinazolin-4-yl)-3-ethyl-1-oxa-3,8-diazaspiro[4.5]decan-2-one]",1.4
11,"N#CCN1CC2(CCN(c3nc(OC[C@@]45CCCN4C[C@H](F)C5)nc4c(F)c(-c5ccc(F)c6sc(N)nc56)c(C(F)(F)F)cc34)CC2)OC1=O [Example 89, 2-(8-(7-(2-amino-7-fluorobenzo[d]thiazol-4-yl)-8-fluoro-2-(((2R,7aS)-2-fluorotetrahydro-1H-pyrrolizin-7a(5H)-yl)methoxy)-6-(trifluoromethyl)quinazolin-4-yl)-2-oxo-1-oxa-3,8-diazaspiro[4.5]decan-3-yl)acetonitrile]",2.4
12,"Nc1nc2c(-c3c(C(F)(F)F)cc4c(N5CCC6(CC5)CN(CC(F)F)C(=O)O6)nc(OC[C@@]56CCCN5C[C@H](F)C6)nc4c3F)ccc(F)c2s1 [Example 90, 8-(7-(2-amino-7-fluorobenzo[d]thiazol-4-yl)-8-fluoro-2-(((2R,7aS)-2-fluorotetrahydro-1H-pyrrolizin-7a(5H)-yl)methoxy)-6-(trifluoromethyl)quinazolin-4-yl)-3-(2,2-difluoroethyl)-1-oxa-3,8-diazaspiro[4.5]decan-2-one]",4.2
13,"Nc1nc2c(-c3c(C(F)(F)F)cc4c(N5CCC6(CC5)CN(CC(F)(F)F)C(=O)O6)nc(OC[C@@]56CCCN5C[C@H](F)C6)nc4c3F)ccc(F)c2s1 [Example 91, 8-(7-(2-amino-7-fluorobenzo[d]thiazol-4-yl)-8-fluoro-2-(((2R,7aS)-2-fluorotetrahydro-1H-pyrrolizin-7a(5H)-yl)methoxy)-6-(trifluoromethyl)quinazolin-4-yl)-3-(2,2,2-trifluoroethyl)-1-oxa-3,8-diazaspiro[4.5]decan-2-one]",3.8
14,"Nc1nc2c(-c3c(C(F)(F)F)cc4c(N5CCC6(CC5)CN(CC5CC5)C(=O)O6)nc(OC[C@@]56CCCN5C[C@H](F)C6)nc4c3F)ccc(F)c2s1 [Example 92, 8-(7-(2-amino-7-fluorobenzo[d]thiazol-4-yl)-8-fluoro-2-(((2R,7aS)-2-fluorotetrahydro-1H-pyrrolizin-7a(5H)-yl)methoxy)-6-(trifluoromethyl)quinazolin-4-yl)-3-(cyclopropylmethyl)-1-oxa-3,8-diazaspiro[4.5]decan-2-one]",2.8
15,"Nc1nc2c(-c3c(C(F)(F)F)cc4c(N5CCC6(CC5)CN(CCO)C(=O)O6)nc(OC[C@@]56CCCN5C[C@H](F)C6)nc4c3F)ccc(F)c2s1 [Example 93, 8-(7-(2-amino-7-fluorobenzo[d]thiazol-4-yl)-8-fluoro-2-(((2R,7aS)-2-fluorotetrahydro-1H-pyrrolizin-7a(5H)-yl)methoxy)-6-(trifluoromethyl)quinazolin-4-yl)-3-(2-hydroxyethyl)-1-oxa-3,8-diazaspiro[4.5]decan-2-one]",2.2
16,"COCCN1CC2(CCN(c3nc(OC[C@@]45CCCN4C[C@H](F)C5)nc4c(F)c(-c5ccc(F)c6sc(N)nc56)c(C(F)(F)F)cc34)CC2)OC1=O [Example 94, 8-(7-(2-amino-7-fluorobenzo[d]thiazol-4-yl)-8-fluoro-2-(((2R,7aS)-2-fluorotetrahydro-1H-pyrrolizin-7a(5H)-yl)methoxy)-6-(trifluoromethyl)quinazolin-4-yl)-3-(2-methoxyethyl)-1-oxa-3,8-diazaspiro[4.5]decan-2-one]",2.5
17,"Nc1nc2c(-c3c(C(F)(F)F)cc4c(N5CCC6(CCNC6=O)CC5)nc(OC[C@@]56CCCN5C[C@H](F)C6)nc4c3F)ccc(F)c2s1 [Example 95, 8-(7-(2-amino-7-fluorobenzo[d]thiazol-4-yl)-8-fluoro-2-(((2R,7aS)-2-fluorotetrahydro-1H-pyrrolizin-7a(5H)-yl)methoxy)-6-(trifluoromethyl)quinazolin-4-yl)-2,8-diazaspiro[4.5]decan-1-one]",2.7
18,"Nc1nc2c(-c3c(C(F)(F)F)cc4c(N5CCC6(CC5)CNC(=O)C6)nc(OC[C@@]56CCCN5C[C@H](F)C6)nc4c3F)ccc(F)c2s1 [Example 96, 8-(7-(2-amino-7-fluorobenzo[d]thiazol-4-yl)-8-fluoro-2-(((2R,7aS)-2-fluorotetrahydro-1H-pyrrolizin-7a(5H)-yl)methoxy)-6-(trifluoromethyl)quinazolin-4-yl)-2,8-diazaspiro[4.5]decan-3-one]",1.5
19,"CN1CC2(CCN(c3nc(OC[C@@]45CCCN4C[C@H](F)C5)nc4c(F)c(-c5ccc(F)c6sc(N)nc56)c(C(F)(F)F)cc34)CC2)CC1=O [Example 97, 8-(7-(2-amino-7-fluorobenzo[d]thiazol-4-yl)-8-fluoro-2-(((2R,7aS)-2-fluorotetrahydro-1H-pyrrolizin-7a(5H)-yl)methoxy)-6-(trifluoromethyl)quinazolin-4-yl)-2-methyl-2,8-diazaspiro[4.5]decan-3-one]",3.8
20,"Nc1nc2c(-c3c(C(F)(F)F)cc4c(N5CCC6(CC5)CNC(=O)CO6)nc(OC[C@@]56CCCN5C[C@H](F)C6)nc4c3F)ccc(F)c2s1 [Example 98, 9-(7-(2-amino-7-fluorobenzo[d]thiazol-4-yl)-8-fluoro-2-(((2R,7aS)-2-fluorotetrahydro-1H-pyrrolizin-7a(5H)-yl)methoxy)-6-(trifluoromethyl)quinazolin-4-yl)-1-oxa-4,9-diazaspiro[5.5]undecan-3-one]",51
